Test results: patent US7109243B2 (IRM LLC, priority 2003, dated 2006)

Key:
[1] = target: Cathepsin S (Homo sapiens, UniProt P25774); assay: Cathepsin S inhibition assay (fluorogenic peptide substrate); type: biochemical; details: Table II, compounds of Formula I; read-out: Ki Cat. S
Procedure, shortened: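 Ki values come from nonlinear fitting of inhibited hydrolysis rates, taking free and total inhibitor concentrations as equal. Rates measured as rising fluorescence at 380/450 nm after reaction start with 50 μM final acetyl-HPVK-aminocarbamoylcoumarin.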

[2] = target: T1, Cathepsin K (Homo sapiens, UniProt P43235); assay: Cathepsin K inhibition assay (fluorogenic peptide substrate); selectivity ratio vs cathepsin S; type: biochemical; details: ratio of cathepsin K inhibition constant to cathepsin S inhibition constant; Table II
T1 sequence (P43235 115-329): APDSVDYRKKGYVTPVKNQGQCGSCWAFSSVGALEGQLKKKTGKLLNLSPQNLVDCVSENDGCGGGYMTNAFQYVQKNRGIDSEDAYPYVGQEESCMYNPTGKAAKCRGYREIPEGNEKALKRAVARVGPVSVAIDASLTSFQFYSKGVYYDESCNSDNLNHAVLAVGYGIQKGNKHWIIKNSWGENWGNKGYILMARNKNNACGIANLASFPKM
Procedure, shortened: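 Inhibition constants for competitive inhibitors come from apparent values fitted to enzyme progress curves. Substrate, acetyl-Lys-His-Pro-Lys-aminocarbamoylcoumarin (40 μM final), starts the reaction; fluorescence rise read at 380 nm excitation, 450 nm emission. Selectivity ratio: other cathepsin constant over cathepsin S constant.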

Chain of Cathepsin S (P25774 115-331, species assumed): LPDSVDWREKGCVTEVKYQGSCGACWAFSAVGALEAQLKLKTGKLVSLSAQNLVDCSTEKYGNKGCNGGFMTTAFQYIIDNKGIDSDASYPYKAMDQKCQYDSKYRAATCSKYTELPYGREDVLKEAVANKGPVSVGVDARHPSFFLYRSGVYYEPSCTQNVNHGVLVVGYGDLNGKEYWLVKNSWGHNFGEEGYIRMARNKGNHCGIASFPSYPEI

**Q.** For O=C(NCCNc1ccc(OC(F)(F)F)cc1)[C@H](CC1CCCCC1)NC(=O)[C@@H](O)c1ccccc1 [Compound 58, 3-Cyclohexyl-2-(S)-(2-(S)-hydroxy-2-phenyl-acetylamino)-N-[2-(4-trifluoromethoxy-phenylamino)-ethyl]-propionamide], which Ki [1] is on record?
**A.** < 100 nM

**Q.** And the “Selectivity for Cat. S over Cat. K” value [2]?
**A.** ++ (++, >100)

**Q.** What does the source list for O=C(N[C@@H](CC1CCCCC1)C(=O)NCCNc1ccc(OC(F)F)cc1)c1ccc(-c2cccc(C(F)(F)F)c2)o1 [Compound 10, N-((S)-1-(2-(4-(difluoromethoxy)phenylamino)ethylcarbamoyl)-2-cyclohexylethyl)-5-(3-(trifluoromethyl)phenyl)furan-2-carboxamide]?
**A.** Ki [1]: < 100 nM; Selectivity for Cat. S over Cat. K [2]: +++ (+++, >1000)

**Q.** Which results are given for COc1ccc(NCCNC(=O)[C@H](Cc2ccccc2)NC(=O)NCc2cccc(F)c2)cc1 [Compound 96, (S)-2-[3-(3-Fluoro-benzyl)-ureido]-N-[2-(4-methoxy-phenylamino)-ethyl]-3-phenyl-propionamide]?
**A.** Ki [1]: < 10000 nM; Selectivity for Cat. S over Cat. K [2]: + (+, >10)

**Q.** O=C(N[C@@H](CC1CCCCC1)C(=O)NCCNc1ccc(OC(F)(F)F)cc1)C1CCCN(c2ncc(Br)cn2)C1 (stereo partly drawn) [Compound 93, 1-(5-Bromo-pyrimidin-2-yl)-piperidine-3-carboxylic acid (S)-{2-cyclohexyl-1-[2-(4-trifluoromethoxy-phenylamino)-ethylcarbamoyl]-ethyl}-amide] was tested. Which Ki [1] did it give?
**A.** < 1000 nM

**Q.** And the “Selectivity for Cat. S over Cat. K” value [2]?
**A.** +++ (+++, >1000)

**Q.** Which Ki [1] does the source give for COc1ccc(NCCNC(=O)[C@H](Cc2ccccc2)NC(=O)Nc2ccc3c(c2)OCO3)cc1 [Compound 94, (S)-2-(3-Benzo[1,3]dioxol-5-yl-ureido)-N-[2-(4-methoxy-phenylamino)-ethyl]-3-phenyl-propionamide] here?
**A.** < 10000 nM

**Q.** And the “Selectivity for Cat. S over Cat. K” value [2]?
**A.** + (+, >10)

**Q.** How did the Ki [1] turn out when COc1ccc(NCCNC(=O)[C@H](Cc2ccc(-c3ccc(CO)cc3)cc2)NC(=O)c2cccc(C)c2)cc1 [Compound 282, (S)-N-{2-(4′-Hydroxymethyl-biphenyl-4-yl)-1-[2-(4-methoxy-phenylamino)-ethylcarbamoyl]-ethyl}-3-methyl-benzamide] was run?
**A.** < 1000 nM

**Q.** And the “Selectivity for Cat. S over Cat. K” value [2]?
**A.** ++ (++, >100)

**Q.** What does the source list for COc1ccc(CC(=O)NC(CC2CCCCC2)C(=O)NCCNc2ccc(OC(F)(F)F)cc2)cc1 (stereo not shown) [Compound 17, 3-Cyclohexyl-2-[2-(4-methoxy-phenyl)-acetylamino]-N-[2-(4-trifluoromethoxy-phenylamino)-ethyl]-propionamide]?
**A.** Ki [1]: < 100 nM; Selectivity for Cat. S over Cat. K [2]: ++ (++, >100)

**Q.** Which Ki [1] does the source give for COc1ccc(NCCNC(=O)[C@H](Cc2ccc(-c3ccncc3)cc2)NC(=O)c2cccc(C)c2)cc1 [Compound 277, (S)-N-[1-[2-(4-Methoxy-phenylamino)-ethylcarbamoyl]-2-(4-pyridin-4-yl-phenyl)-ethyl]-3-methyl-benzamide] here?
**A.** < 100 nM

**Q.** What about the “Selectivity for Cat. S over Cat. K” value [2] of the same compound?
**A.** ++ (++, >100)

**Q.** Which Ki [1] does the source give for COc1ccc(NCCNC(=O)[C@H](Cc2ccc(Oc3ccccc3C)cc2)NC(=O)c2cccc(C)c2)cc1 [Compound 66, (S)-N-[1-[2-(4-Methoxy-phenylamino)-ethylcarbamoyl]-2-(4-o-tolyloxy-phenyl)-ethyl]-3-methyl-benzamide] here?
**A.** < 1000 nM

**Q.** What about the “Selectivity for Cat. S over Cat. K” value [2] of the same compound?
**A.** ++ (++, >100)

**Q.** What does the source list for COc1ccc(NCCNC(=O)[C@H](CC2CCCCC2)NC(=O)c2cccc(N(C)C)c2)cc1 [Compound 119, (S)-N-{2-Cyclohexyl-1-[2-(4-methoxy-phenylamino)-ethylcarbamoyl]-ethyl}-3-dimethylamino-benzamide]?
**A.** Ki [1]: < 100 nM; Selectivity for Cat. S over Cat. K [2]: + (+, >10)

**Q.** What does the source list for O=C(N[C@@H](CC1CCCCC1)C(=O)NCCNc1ccc(OC(F)(F)F)cc1)c1ccc(-c2ccccc2)o1 [Compound 65, 5-Phenyl-furan-2-carboxylic acid (S)-{2-cyclohexyl-1-[2-(4-trifluoromethoxy-phenylamino)-ethylcarbamoyl]-ethyl}-amide]?
**A.** Ki [1]: < 100 nM; Selectivity for Cat. S over Cat. K [2]: ++ (++, >100)

**Q.** Which results are given for COc1ccc(NCCNC(=O)[C@H](Cc2cccc(C(F)(F)F)c2)NC(=O)c2cccc(C)c2)cc1 [Compound 252, (S)-N-[1-[2-(4-Methoxy-phenylamino)-ethylcarbamoyl]-2-(3-trifluoromethyl-phenyl)-ethyl]-3-methyl-benzamide]?
**A.** Ki [1]: < 100 nM; Selectivity for Cat. S over Cat. K [2]: +++ (+++, >1000)

**Q.** For COc1ccc(NCCNC(=O)[C@H](Cc2cccc(F)c2)NC(=O)c2cccc(C)c2)cc1 [Compound 236, (S)-N-{2-(3-Fluoro-phenyl)-1-[2-(4-methoxy-phenylamino)-ethylcarbamoyl]-ethyl}-3-methyl-benzamide], which Ki [1] is on record?
**A.** < 100 nM

**Q.** And the “Selectivity for Cat. S over Cat. K” value [2]?
**A.** +++ (+++, >1000)

**Q.** Which results are given for Cc1nc(N)sc1C(=O)N[C@@H](CC1CCCCC1)C(=O)NCCNc1ccc(OC(F)(F)F)cc1 [Compound 250, 2-Amino-4-methyl-thiazole-5-carboxylic acid (S)-{2-cyclohexyl-1-[2-(4-trifluoromethoxy-phenylamino)-ethylcarbamoyl]-ethyl}-amide]?
**A.** Ki [1]: < 100 nM; Selectivity for Cat. S over Cat. K [2]: ++ (++, >100)

**Q.** Which Ki [1] does the source give for O=C(N[C@@H](CC1CCCCC1)C(=O)NCCNc1ccc(OC(F)(F)F)cc1)c1ccc(-c2ccc(OC(F)(F)F)cc2)o1 [Compound 215, (S)-5-(4-Trifluoromethoxy-phenyl)-furan-2-carboxylic acid {2-cyclohexyl-1-[2-(4-trifluoromethoxy-phenylamino)-ethylcarbamoyl]-ethyl}-amide] here?
**A.** < 100 nM

**Q.** And the “Selectivity for Cat. S over Cat. K” value [2]?
**A.** +++ (+++, >1000)

**Q.** With CS(=O)(=O)c1ccc(C(=O)N[C@@H](CC2CCCCC2)C(=O)NCCNc2ccc(F)cc2)s1 [Compound 293, 5-Methanesulfonyl-thiophene-2-carboxylic acid (S)-{2-cyclohexyl-1-[2-(4-fluoro-phenylamino)-ethylcarbamoyl]-ethyl}-amide] as the compound, how does the Ki [1] read?
**A.** < 100 nM

**Q.** And the “Selectivity for Cat. S over Cat. K” value [2]?
**A.** ++ (++, >100)

**Q.** What does the source list for CC(=O)N1CCN(c2ccc(OCC(=O)N[C@@H](CC3CCCCC3)C(=O)NCCNc3ccc(OC(F)(F)F)cc3)cc2)CC1 [Compound 15, (S)-2-{2-[4-(4-Acetyl-piperazin-1-yl)-phenoxy]-acetylamino}-3-cyclohexyl-N-[2-(4-trifluoromethoxy-phenylamino)-ethyl]-propionamide]?
**A.** Ki [1]: < 1000 nM; Selectivity for Cat. S over Cat. K [2]: + (+, >10)

**Q.** Which results are given for COc1ccc(NCCNC(=O)[C@H](CC2CCCCC2)NC(=O)c2c[nH]c3ccccc23)cc1 [Compound 185, (S)-1H-Indole-3-carboxylic acid {2-cyclohexyl-1-[2-(4-methoxy-phenylamino)-ethylcarbamoyl]-ethyl}-amide]?
**A.** Ki [1]: < 100 nM; Selectivity for Cat. S over Cat. K [2]: ++ (++, >100)

**Q.** Which results are given for O=C(Cc1cc(F)ccc1F)N[C@@H](CC1CCCCC1)C(=O)NCCNc1ccc(F)cc1 [Compound 95, 3-Cyclohexyl-2-(S)-[2-(2,5-difluorophenyl)-acetylamino]-N-[2-(4-fluoro-phenylamino)-ethyl]-propionamide]?
**A.** Ki [1]: < 100 nM; Selectivity for Cat. S over Cat. K [2]: ++ (++, >100)

**Q.** For O=C(N[C@@H](CC1CCCCC1)C(=O)NCCNc1ccc(OC(F)(F)F)cc1)c1ccsc1 [Compound 37, Thiophene-3-carboxylic acid (S)-{2-cyclohexyl-1-[2-(4-trifluoromethoxy-phenylamino)-ethylcarbamoyl]-ethyl}-amide], which Ki [1] is on record?
**A.** < 100 nM

**Q.** What about the “Selectivity for Cat. S over Cat. K” value [2] of the same compound?
**A.** ++ (++, >100)

**Q.** With C[C@@H](C(=O)N[C@@H](CC1CCCCC1)C(=O)NCCNc1ccc(OC(F)(F)F)cc1)c1ccccc1 [Compound 122, N-{2-cyclohexyl-1-(S)-[2-(4-trifluoromethoxy-phenylamino)-ethylcarbamoyl]-ethyl}-2-(R)-phenyl-propionamide] as the compound, how does the Ki [1] read?
**A.** < 100 nM

**Q.** And the “Selectivity for Cat. S over Cat. K” value [2]?
**A.** +++ (+++, >1000)

**Q.** What does the source list for O=C(N[C@@H](CC1CCCCC1)C(=O)NCCNc1ccc(OC(F)(F)F)cc1)C1CC(=O)N(Cc2cccs2)C1 (stereo partly drawn) [Compound 38, 5-Oxo-1-thiophen-2-ylmethyl-pyrrolidine-3-carboxylic acid (S)-{2-cyclohexyl-1-[2-(4-trifluoromethoxy-phenylamino)-ethylcarbamoyl]-ethyl}-amide]?
**A.** Ki [1]: < 100 nM; Selectivity for Cat. S over Cat. K [2]: ++ (++, >100)

**Q.** What does the source list for O=C(N[C@@H](CC1CCCCC1)C(=O)NCCNc1ccc(OC(F)(F)F)cc1)c1ccc(OCc2ccccc2)cc1 [Compound 232, (S)-4-Benzyloxy-N-{2-cyclohexyl-1-[2-(4-trifluoromethoxy-phenylamino)-ethylcarbamoyl]-ethyl}-benzamide]?
**A.** Ki [1]: < 100 nM; Selectivity for Cat. S over Cat. K [2]: + (+, >10)

**Q.** With COc1ccc(NCCNC(=O)[C@H](Cc2ccccc2)NC(=O)NCCc2ccccc2)cc1 [Compound 90, (S)-N-[2-(4-Methoxy-phenylamino)-ethyl]-2-(3-phenethyl-ureido)-3-phenyl-propionamide] as the compound, how does the Ki [1] read?
**A.** < 1000 nM

**Q.** And the “Selectivity for Cat. S over Cat. K” value [2]?
**A.** + (+, >10)

**Q.** For O=C(Cc1ccc(OC(F)(F)F)cc1)N[C@@H](CC1CCCCC1)C(=O)NCCNc1ccc(F)cc1 [Compound 87, 3-Cyclohexyl-N-(S)-[2-(4-fluoro-phenylamino)-ethyl]-2-[2-(4-trifluoromethoxy-phenyl)-acetylamino]-propionamide], which Ki [1] is on record?
**A.** < 100 nM

**Q.** What about the “Selectivity for Cat. S over Cat. K” value [2] of the same compound?
**A.** ++ (++, >100)

**Q.** Which Ki [1] does the source give for COc1ccccc1-c1ccc(C(=O)N[C@@H](CC2CCCCC2)C(=O)NCCNc2ccc(OC(F)(F)F)cc2)o1 [Compound 210, (S)-5-(2-Methoxy-phenyl)-furan-2-carboxylic acid {2-cyclohexyl-1-[2-(4-trifluoromethoxy-phenylamino)-ethylcarbamoyl]-ethyl}-amide] here?
**A.** < 100 nM

**Q.** What about the “Selectivity for Cat. S over Cat. K” value [2] of the same compound?
**A.** ++ (++, >100)
